Here are results for 30 molecules from patent publication US10626112B2, “Heterocyclic sulfonamide derivative and medicine comprising same” (EA PHARMA CO., LTD., priority 2014, dated 2020).

For the assay, the target named is human TRPA1 (Homo sapiens (Human), UniProt O75762). Description: Measurement of TRPA1 antagonist activity (1): intracellular calcium increase. In kind it is cell-based. As to conditions: 293T cells transfected with human TRPA1 expression plasmid; allylisothiocyanate 20 μM stimulation; intracellular calcium fluorescence; read-out: hTRPA1 IC50. The method in brief: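 Calcium-flux readout of TRPA1 block: compound given 10 min before 20 μM (final) allylisothiocyanate, fluorescence tracked 5 min. Cells were 293T transiently expressing human TRPA1, dye-loaded 1 hr in HBSS, 20 mM HEPES, pH 7.2. Inhibition scaled between agonist-only and buffer-only responses; IC50 by sigmoid fitting.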
A general note: Calcium assays in cells follow changes in intracellular calcium, usually with a dye or a luminescent sensor.

The term IC50 denotes the concentration at which inhibition is half-maximal.

Sequence of human TRPA1 (O75762 whole entry): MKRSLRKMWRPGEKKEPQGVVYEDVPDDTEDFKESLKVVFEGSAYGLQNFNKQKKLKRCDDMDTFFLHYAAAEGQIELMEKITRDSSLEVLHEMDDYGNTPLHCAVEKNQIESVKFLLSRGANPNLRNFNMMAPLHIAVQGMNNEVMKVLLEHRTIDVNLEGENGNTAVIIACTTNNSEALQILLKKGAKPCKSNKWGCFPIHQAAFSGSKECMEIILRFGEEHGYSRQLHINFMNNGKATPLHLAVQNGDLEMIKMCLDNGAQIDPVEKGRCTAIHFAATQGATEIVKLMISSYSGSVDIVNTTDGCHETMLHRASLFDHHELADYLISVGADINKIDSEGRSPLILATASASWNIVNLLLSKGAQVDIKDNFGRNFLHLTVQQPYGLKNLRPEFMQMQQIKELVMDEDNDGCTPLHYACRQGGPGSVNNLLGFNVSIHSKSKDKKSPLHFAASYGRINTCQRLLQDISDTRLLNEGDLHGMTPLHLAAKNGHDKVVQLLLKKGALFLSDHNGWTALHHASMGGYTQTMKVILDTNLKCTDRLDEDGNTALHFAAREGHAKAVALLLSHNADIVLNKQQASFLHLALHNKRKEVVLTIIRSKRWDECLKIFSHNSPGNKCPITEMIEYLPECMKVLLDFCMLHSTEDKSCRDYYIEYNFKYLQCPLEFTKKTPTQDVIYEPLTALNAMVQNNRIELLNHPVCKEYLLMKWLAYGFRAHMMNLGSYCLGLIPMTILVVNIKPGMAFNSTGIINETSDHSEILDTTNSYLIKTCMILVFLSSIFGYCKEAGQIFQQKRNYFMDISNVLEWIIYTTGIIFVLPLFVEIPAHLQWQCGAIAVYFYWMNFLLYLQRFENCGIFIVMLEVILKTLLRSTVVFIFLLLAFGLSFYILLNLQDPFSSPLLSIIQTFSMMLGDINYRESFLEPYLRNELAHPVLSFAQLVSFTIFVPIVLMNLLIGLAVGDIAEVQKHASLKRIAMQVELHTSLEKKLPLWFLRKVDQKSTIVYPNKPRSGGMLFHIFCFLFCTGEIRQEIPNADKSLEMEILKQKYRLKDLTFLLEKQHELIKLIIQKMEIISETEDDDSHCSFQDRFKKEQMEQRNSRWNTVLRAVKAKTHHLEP

For `N#Cc1ccc(-c2ccnc(CNC(=O)[C@@H]3CCCN3S(=O)(=O)c3cc4ccccc4o3)c2)cc1` [Example 281, (2S)-1-(benzofuran-2-ylsulfonyl)-N-[[4-(4-cyanophenyl)-2-pyridyl]methyl]pyrrolidine-2-carboxamide], the IC50 amounted to 22 nM.
With `O=C(NCc1cc(/C=C/C2CC2)ccn1)[C@@H]1CCCN1S(=O)(=O)c1cc2ccccc2o1` [Example 282, (2S)-1-(benzofuran-2-ylsulfonyl)-N-[[4-[(E)-2-cyclopropylvinyl]-2-pyridyl]methyl]pyrrolidine-2-carboxamide], the IC50 was determined as 250 nM.
With `O=C(NCc1cc(C2=CCCCC2)ccn1)[C@@H]1CCCN1S(=O)(=O)c1cc2ccccc2o1` [Example 283, (2S)-1-(benzofuran-2-ylsulfonyl)-N-[[4-(cyclohexen-1-yl)-2-pyridyl]methyl]pyrrolidine-2-carboxamide], the IC50 came to 250 nM.
On to `Cc1ccc(-c2ccnc(CNC(=O)[C@@H]3CCCN3S(=O)(=O)c3cc4ccccc4o3)c2)cc1` [Example 284, (2S)-1-(benzofuran-2-ylsulfonyl)-N-[[4-(p-tolyl)-2-pyridyl]methyl]pyrrolidine-2-carboxamide], for which the IC50 came out at 76 nM.
With `CC(C)(C)c1ccc(-c2ccnc(CNC(=O)[C@@H]3CCCN3S(=O)(=O)c3cc4ccccc4o3)c2)cc1` [Example 285, (2S)-1-(benzofuran-2-ylsulfonyl)-N-[[4-(4-tert-butylphenyl)-2-pyridyl]methyl]pyrrolidine-2-carboxamide] the figure was 30 nM; with `O=C(NCc1cc(-c2cc(Cl)cs2)ccn1)[C@@H]1CCCN1S(=O)(=O)c1cc2ccccc2o1` [Example 286, (2S)-1-(benzofuran-2-ylsulfonyl)-N-[[4-(4-chloro-2-thienyl)-2-pyridyl]methyl]pyrrolidine-2-carboxamide], 180 nM.
On to `C[C@H](NC(=O)[C@@H]1CCCN1S(=O)(=O)c1cc2ccccc2o1)c1cccc(-c2ccc(C(F)(F)F)nc2)c1` [Example 287, (2S)-1-(benzofuran-2-ylsulfonyl)-N-[(1S)-1-[3-[6-(trifluoromethyl)-3-pyridyl]phenyl]ethyl]pyrrolidine-2-carboxamide], for which the IC50 is 7.9 nM.
Take `O=C(NCc1cc(-c2ccc(C(F)(F)F)cc2O)ncn1)[C@@H]1CCCN1S(=O)(=O)c1cc2ccccc2o1` [Example 288, (2S)-1-(benzofuran-2-ylsulfonyl)-N-[[6-[2-hydroxy-4-(trifluoromethyl)phenyl]pyrimidin-4-yl]methyl]pyrrolidine-2-carboxamide]: the IC50 was 2.5 nM.
`O=C(NCc1cc(-c2ccc(C(F)(F)F)cc2O)ncn1)[C@@H]1CCCN1S(=O)(=O)c1cc2cc(F)ccc2o1` [Example 289, (2S)-1-(5-fluorobenzofuran-2-yl)sulfonyl-N-[[6-[2-hydroxy-4-(trifluoromethyl)phenyl]pyrimidin-4-yl]methyl]pyrrolidine-2-carboxamide]: the IC50 was 1.4 nM.
With `C[C@H](NS(=O)(=O)c1cc2cc(F)ccc2o1)C(=O)NCc1cc(-c2ccc(C(F)(F)F)cc2O)ncn1` [Example 290, (2S)-2-[(5-fluorobenzofuran-2-yl)sulfonylamino]-N-[[6-[2-hydroxy-4-(trifluoromethyl)phenyl]pyrimidin-4-yl]methyl]propanamide] the figure was 5.7 nM.
On to `O=C(NCc1cccc(OCc2ccc(C(F)(F)F)cn2)c1)[C@@H]1CCCN1S(=O)(=O)c1cc2ccccc2o1` [Example 291, (2S)-1-(benzofuran-2-ylsulfonyl)-N-[[3-[[5-(trifluoromethyl)-2-pyridyl]methoxy]phenyl]methyl]pyrrolidine-2-carboxamide], for which the IC50 stood at 28 nM.
With `CNc1ccccc1-c1cc(CNC(=O)[C@@H]2CCCN2S(=O)(=O)c2cc3ccccc3o2)ccn1` [Example 292, (2S)-1-(benzofuran-2-ylsulfonyl)-N-[[2-[2-(methylamino)phenyl]-4-pyridyl]methyl]pyrrolidine-2-carboxamide] the figure was 580 nM; with `N#Cc1ccc(-c2cc(CNC(=S)[C@@H]3CCCN3S(=O)(=O)c3cc4ccccc4o3)ccn2)cc1` [Example 293, (2S)-1-(benzofuran-2-ylsulfonyl)-N-[[2-(4-cyanophenyl)-4-pyridyl]methyl]pyrrolidine-2-carbothioamide], 3.1 nM; with `O=C(NCc1ccnc(-c2cc(C(F)(F)F)n[nH]2)c1)[C@@H]1CCCN1S(=O)(=O)c1cc2ccccc2o1` [Example 294, (2S)-1-(benzofuran-2-ylsulfonyl)-N-[[2-[3-(trifluoromethyl)-1H-pyrazol-5-yl]-4-pyridyl]methyl]pyrrolidine-2-carboxamide], 170 nM.
Take `O=C(NCc1cccc(OS(=O)(=O)c2cc3cc(F)ccc3o2)c1)[C@@H]1CCCN1S(=O)(=O)c1cc2cc(F)ccc2o1` [Example 295, 5-fluorobenzofuran-2-sulfonic acid [3-[[[(2S)-1-(5-fluorobenzofuran-2-yl)sulfonylpyrrolidine-2-carbonyl]amino]methyl]phenyl]ester]: the IC50 worked out at 69 nM.
For `O=C(NCc1cccc(Nc2ccc(C(F)(F)F)cc2)c1)[C@@H]1CCCN1S(=O)(=O)c1cc2cc(F)ccc2o1` [Example 296, (2S)-1-(5-fluorobenzofuran-2-yl)sulfonyl-N-[[3-[4-(trifluoromethyl)anilino]phenyl]methyl]pyrrolidine-2-carboxamide], the IC50 is 7.9 nM.
With `O=C(NCc1cccc(/C=C/c2ccc(C(F)(F)F)cc2)c1)[C@@H]1CCCN1S(=O)(=O)c1cc2cc(F)ccc2o1` [Example 297, (2S)-1-(5-fluorobenzofuran-2-yl)sulfonyl-N-[[3-[(E)-2-[4-(trifluoromethyl)phenyl]vinyl]phenyl]methyl]pyrrolidine-2-carboxamide], the IC50 is 7.5 nM.
Take `O=C(NCc1cccc(COc2ccc(C(F)(F)F)cc2)c1)[C@@H]1CCCN1S(=O)(=O)c1cc2ccccc2o1` [Example 298, (2S)-1-(benzofuran-2-ylsulfonyl)-N-[[3-[[4-(trifluoromethyl)phenoxy]methyl]phenyl]methyl]pyrrolidine-2-carboxamide]: the IC50 is 11 nM.
On to `O=C(Nc1cccc(CNC(=O)[C@@H]2CCCN2S(=O)(=O)c2cc3ccccc3o2)c1)c1ccc(C(F)(F)F)cc1` [Example 300, (2S)-1-(benzofuran-2-ylsulfonyl)-N-[[3-[[4-(trifluoromethyl)benzoyl]amino]phenyl]methyl]pyrrolidine-2-carboxamide], for which the IC50 is 310 nM.
Under `C[C@H](NS(=O)(=O)c1cc2cnccc2o1)C(=O)NCc1cc(-c2ccc(C(F)(F)F)cc2)ncn1` [Example 301, (2S)-2-(furo[3,2-c]pyridin-2-ylsulfonylamino)-N-[[6-[4-(trifluoromethyl)phenyl]pyrimidin-4-yl]methyl]propanamide] stands 30 nM; under `C[C@H](NS(=O)(=O)c1cc2cnccc2o1)C(=O)NCc1ccnc(-c2ccc(C(F)(F)F)cc2O)c1` [Example 303, (2S)-2-(furo[3,2-c]pyridin-2-ylsulfonylamino)-N-[[2-[2-hydroxy-4-(trifluoromethyl)phenyl]-4-pyridyl]methyl]propanamide], 42 nM; under `C[C@H](NS(=O)(=O)c1cc2cnccc2o1)C(=O)NCc1cc(-c2ccc(C(F)(F)F)cn2)ccn1` [Example 304, (2S)-2-(furo[3,2-c]pyridin-2-ylsulfonylamino)-N-[[4-[5-(trifluoromethyl)-2-pyridyl]-2-pyridyl]methyl]propanamide], 350 nM.
`C[C@H](NS(=O)(=O)c1cc2cnccc2o1)C(=O)NCc1cc(-c2ccc(OC(F)(F)F)cc2)ncn1` [Example 305, (2S)-2-(furo[3,2-c]pyridin-2-ylsulfonylamino)-N-[[6-[4-(trifluoromethoxy)phenyl]pyrimidin-4-yl]methyl]propanamide]: the IC50 came out at 26 nM.
Regarding `O=C(NCc1cc(-c2ccc(OC(F)(F)F)cc2)ncn1)[C@@H]1CCCN1S(=O)(=O)c1cc2cnccc2o1` [Example 306, (2S)-1-furo[3,2-c]pyridin-2-ylsulfonyl-N-[[6-[4-(trifluoromethoxy)phenyl]pyrimidin-4-yl]methyl]pyrrolidine-2-carboxamide], the IC50 turned out to be 2.8 nM.
With `O=C(NCc1ccc(F)c(-c2ccc(C(F)(F)F)cc2)c1)[C@@H]1CCCN1S(=O)(=O)c1cc2ccccc2o1` [Example 307, (2S)-1-(benzofuran-2-ylsulfonyl)-N-[[4-fluoro-3-[4-(trifluoromethyl)phenyl]phenyl]methyl]pyrrolidine-2-carboxamide] the figure was 1.7 nM; with `O=C(NCc1ccc(F)c(-c2ccc(C(F)(F)F)cc2O)c1)[C@@H]1CCCN1S(=O)(=O)c1cc2ccccc2o1` [Example 308], 360 nM.
As to `O=C(NCc1ccc(F)c(-c2ccc(C(F)(F)F)cn2)c1)[C@@H]1CCCN1S(=O)(=O)c1cc2ccccc2o1` [Example 309, (2S)-1-(benzofuran-2-ylsulfonyl)-N-[[4-fluoro-3-[5-(trifluoromethyl)-2-pyridyl]phenyl]methyl]pyrrolidine-2-carboxamide], the IC50 is 10 nM.
As for `COc1cc(CNC(=O)[C@@H]2CCCN2S(=O)(=O)c2cc3ccccc3o2)cc(-c2ccc(C(F)(F)F)nc2)c1` [Example 310, (2S)-1-(benzofuran-2-ylsulfonyl)-N-[[3-methoxy-5-[6-(trifluoromethyl)-3-pyridyl]phenyl]methyl]pyrrolidine-2-carboxamide], the IC50 came to 2.5 nM.
Turning to `CC(C)COc1nc(CNC(=O)[C@@H]2CCCN2S(=O)(=O)c2cc3ccccc3o2)cc(-c2ccc(C(F)(F)F)cc2)n1` [Example 311, (2S)-1-(benzofuran-2-ylsulfonyl)-N-[[2-isobutoxy-6-[4-(trifluoromethyl)phenyl]pyrimidin-4-yl]methyl]pyrrolidine-2-carboxamide], the IC50 was determined as 3.7 nM.
`CN(C)c1nc(CNC(=O)[C@@H]2CCCN2S(=O)(=O)c2cc3ccccc3o2)cc(-c2ccc(C(F)(F)F)cc2)n1` [Example 312, (2S)-1-(benzofuran-2-ylsulfonyl)-N-[[2-(dimethylamino)-6-[4-(trifluoromethyl)phenyl]pyrimidin-4-yl]methyl]pyrrolidine-2-carboxamide]: the IC50 was found to be 5.3 nM.
